PubChem BioAssay AID248 (DTP/NCI, 2004)
Values joined by “and” are separate entries in the source; they are usually repeats but may differ in a detail not shown here. Identical values can stand only once. Inconclusive results and toxic doses are left out.

Test system: L1210 leukemia ip in BDF1 mice, survival T/C
Test: NCI In Vivo Anticancer Drug Screen. Data for tumor model L1210 Leukemia (intraperitoneal) in B6D2F1 (BDF1) mice
Settings: endpoint: mean survival time, higher = longer survival
How it was run: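 Ratio derived from survival: compound-dosed mice over vehicle-dosed mice, all bearing a transplantable tumor.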

[1] = dose: 100.0 mg/kg/injection, schedule: Q04DX002 (ip), vehicle: saline with Tween-80
[2] = dose: 200.0 mg/kg/injection, schedule: Q04DX002 (ip), vehicle: saline with Tween-80
[3] = dose: 400.0 mg/kg/injection, schedule: Q04DX002 (ip), vehicle: saline with Tween-80
[4] = dose: 100.0 mg/kg/injection, schedule: Q04DX002 (ip), vehicle: saline
[5] = dose: 200.0 mg/kg/injection, schedule: Q04DX002 (ip), vehicle: saline
[6] = dose: 100.0 mg/kg/injection, schedule: Q01DX001 (ip), vehicle: saline
[7] = dose: 200.0 mg/kg/injection, schedule: Q01DX001 (ip), vehicle: saline
[8] = dose: 400.0 mg/kg/injection, schedule: Q01DX001 (ip), vehicle: saline
[9] = dose: 50.0 mg/kg/injection, schedule: Q01DX001 (ip), vehicle: saline
[10] = dose: 50.0 mg/kg/injection, schedule: Q01DX001 (ip), vehicle: other
[11] = dose: 100.0 mg/kg/injection, schedule: Q01DX001 (ip), vehicle: other
[12] = dose: 200.0 mg/kg/injection, schedule: Q01DX001 (ip), vehicle: other
[13] = dose: 100.0 mg/kg/injection, schedule: Q04DX002 (ip), vehicle: Klucel (hydroxypropylcellulose) (HPC)
[14] = dose: 200.0 mg/kg/injection, schedule: Q04DX002 (ip), vehicle: Klucel (hydroxypropylcellulose) (HPC)
[15] = dose: 400.0 mg/kg/injection, schedule: Q04DX002 (ip), vehicle: Klucel (hydroxypropylcellulose) (HPC)
[16] = dose: 100.0 mg/kg/injection, schedule: Q01DX009 (ip), vehicle: saline
[17] = dose: 100.0 mg/kg/injection, schedule: Q01DX009 (ip), vehicle: saline with Tween-80
[18] = dose: 200.0 mg/kg/injection, schedule: Q01DX009 (ip), vehicle: saline with Tween-80
[19] = dose: 400.0 mg/kg/injection, schedule: Q01DX009 (ip), vehicle: saline with Tween-80
[20] = dose: 6.25 mg/kg/injection, schedule: Q04DX003 (ip), vehicle: saline
[21] = dose: 12.5 mg/kg/injection, schedule: Q04DX003 (ip), vehicle: saline
[22] = dose: 25.0 mg/kg/injection, schedule: Q04DX003 (ip), vehicle: saline
[23] = dose: 1.56 mg/kg/injection, schedule: Q01DX009 (ip), vehicle: Klucel (hydroxypropylcellulose) (HPC)
[24] = dose: 25.0 mg/kg/injection, schedule: Q04DX003 (ip), vehicle: Klucel (hydroxypropylcellulose) (HPC)
[25] = dose: 25.0 mg/kg/injection, schedule: Q01DX009 (ip), vehicle: saline
[26] = dose: 400.0 mg/kg/injection, schedule: Q04DX003 (ip), vehicle: saline
[27] = dose: 100.0 mg/kg/injection, schedule: Q04DX003 (ip), vehicle: saline
[28] = dose: 200.0 mg/kg/injection, schedule: Q04DX003 (ip), vehicle: saline

CCOC(=O)/C=C(\N)c1ccccc1
T/C [1]: 102 % of control | T/C [2]: 108 % of control | T/C [3]: 91 % of control

NC(=O)c1cncc(C(N)=O)c1
T/C [4]: 103 % of control | T/C [5]: 95 % of control | T/C (dose: 400.0 mg/kg/injection, schedule: Q04DX002 (ip), vehicle: saline): 100 % of control

c1ccc2c3c(ccc2c1)-c1oncc1CC3
T/C [6]: 95 % of control | T/C [7]: 103 % of control | T/C [8]: 93 % of control

COc1ccccc1CCCO
T/C [9]: 97 % of control | T/C [6]: 105 % of control | T/C [7]: 100 % of control | T/C [8]: 105 % of control

O=[N+]([O-])c1c(-c2ccccc2)no[n+]1[O-]
T/C (dose: 40.0 mg/kg/injection, schedule: Q04DX003 (ip), vehicle: Klucel (hydroxypropylcellulose) (HPC)): 91 % of control | T/C (dose: 80.0 mg/kg/injection, schedule: Q04DX003 (ip), vehicle: Klucel (hydroxypropylcellulose) (HPC)): 96 % of control

Cn1c(=O)c2c(nc(OC3CCCCCC3)n2C)n(C)c1=O
T/C [10]: 101 % of control | T/C [11]: 93 % of control | T/C [12]: 98 % of control

O=C(O)COc1ccc2ccccc2c1Cl
T/C [13]: 86 % of control | T/C [14]: 89 % of control | T/C [15]: 92 % of control

O=C1OCC(O)C(O)C(O)C(O)C1O (centres undefined)
T/C [16]: 102 % of control | T/C (dose: 200.0 mg/kg/injection, schedule: Q01DX009 (ip), vehicle: saline): 100 % of control | T/C (dose: 400.0 mg/kg/injection, schedule: Q01DX009 (ip), vehicle: saline): 102 % of control

COc1ccc(/C=C2\N=C(c3cccc(Cl)c3)OC2=O)cc1OC
T/C [17]: 105 % of control | T/C [13]: 89 % of control | T/C [18]: 97 % of control | T/C [14]: 92 % of control | T/C [19]: 105 % of control | T/C [15]: 86 % of control

CC(C)(C)C(=O)CC(c1ccccc1)c1ccccc1
T/C [10]: 102 % of control | T/C [11]: 98 % of control | T/C [12]: 98 % of control | T/C (dose: 400.0 mg/kg/injection, schedule: Q01DX001 (ip), vehicle: other): 98 % of control

CN(C)CCCN1c2ccccc2Sc2ccc(F)cc21
T/C (dose: 3.12 mg/kg/injection, schedule: Q04DX003 (ip), vehicle: saline): 94 % of control | T/C [20]: 97 % of control | T/C [21]: 108 % of control | T/C [22]: 111 % of control

Clc1cccc(Cl)c1C[n+]1ccccc1
T/C (dose: 9.38 mg/kg/injection, schedule: Q01DX001 (ip), vehicle: saline): 110 % of control | T/C (dose: 18.75 mg/kg/injection, schedule: Q01DX001 (ip), vehicle: saline): 110 % of control

Cc1nc(-c2ccccc2)c(-c2ccccc2)[nH]1
T/C (dose: 50.0 mg/kg/injection, schedule: Q01DX009 (ip), vehicle: Klucel (hydroxypropylcellulose) (HPC)): 99 % of control | T/C (dose: 66.0 mg/kg/injection, schedule: Q01DX009 (ip), vehicle: Klucel (hydroxypropylcellulose) (HPC)): 113 % of control | T/C (dose: 100.0 mg/kg/injection, schedule: Q01DX009 (ip), vehicle: Klucel (hydroxypropylcellulose) (HPC)): 111 % of control | T/C (dose: 100.0 mg/kg/injection, schedule: Q04DX003 (ip), vehicle: Klucel (hydroxypropylcellulose) (HPC)): 101 % of control | T/C (dose: 150.0 mg/kg/injection, schedule: Q01DX009 (ip), vehicle: Klucel (hydroxypropylcellulose) (HPC)): 92 % of control | T/C (dose: 200.0 mg/kg/injection, schedule: Q04DX003 (ip), vehicle: Klucel (hydroxypropylcellulose) (HPC)): 101 % of control

Cn1c(=O)c2[nH]c(C3CCCC3)nc2n(C)c1=O
T/C [9]: 96 % of control | T/C [6]: 96 % of control | T/C [7]: 96 % of control

Cc1ccnc(NS(=O)(=O)c2ccc(N=Nc3nc4[nH]c(N)nc(=S)c4[nH]3)cc2)n1
T/C [23]: 230 % of control | T/C (dose: 12.5 mg/kg/injection, schedule: Q01DX009 (ip), vehicle: Klucel (hydroxypropylcellulose) (HPC)): 94 % of control and 108 % of control | T/C [24]: 162 % of control and 180 % of control | T/C (dose: 50.0 mg/kg/injection, schedule: Q04DX003 (ip), vehicle: Klucel (hydroxypropylcellulose) (HPC)): 173 % of control and 182 % of control and 192 % of control

c1ccc(CC[P+](c2ccccc2)(c2ccccc2)c2ccccc2)cc1
T/C (dose: 0.78 mg/kg/injection, schedule: Q01DX009 (ip), vehicle: Klucel (hydroxypropylcellulose) (HPC)): 97 % of control | T/C [23]: 96 % of control | T/C (dose: 3.13 mg/kg/injection, schedule: Q01DX009 (ip), vehicle: Klucel (hydroxypropylcellulose) (HPC)): 92 % of control | T/C (dose: 12.5 mg/kg/injection, schedule: Q04DX003 (ip), vehicle: Klucel (hydroxypropylcellulose) (HPC)): 101 % of control | T/C [24]: 103 % of control

COc1ccc(N2CSC(=S)N(c3ccc(OC)cc3)C2)cc1
T/C [25]: 96 % of control | T/C (dose: 50.0 mg/kg/injection, schedule: Q01DX009 (ip), vehicle: saline): 93 % of control | T/C [16]: 95 % of control | T/C [26]: 91 % of control

C#CCNCc1ccccc1
T/C (dose: 50.0 mg/kg/injection, schedule: Q01DX009 (ip), vehicle: saline with Tween-80): 101 % of control and 92 % of control | T/C [6]: 100 % of control | T/C [17]: 101 % of control and 106 % of control | T/C [4]: 94 % of control and 96 % of control and 108 % of control | T/C [27]: 98 % of control | T/C [7]: 96 % of control | T/C [5]: 101 % of control (2×) and 112 % of control | T/C [28]: 101 % of control | T/C [8]: 98 % of control

CCCCCC[P+](c1ccccc1)(c1ccccc1)c1ccccc1
T/C (dose: 6.25 mg/kg/injection, schedule: Q01DX009 (ip), vehicle: saline): 99 % of control | T/C [20]: 101 % of control | T/C (dose: 12.5 mg/kg/injection, schedule: Q01DX009 (ip), vehicle: saline): 107 % of control | T/C [21]: 100 % of control | T/C [25]: 98 % of control | T/C [22]: 103 % of control

COC(=O)C1OC(CO)C(O)C1O (centres undefined)
T/C [6]: 105 % of control | T/C [27]: 110 % of control | T/C [7]: 113 % of control | T/C [28]: 107 % of control | T/C [8]: 97 % of control | T/C [26]: 110 % of control

CC1CCOC(C)(CO)O1 (centres undefined)
T/C [1]: 98 % of control | T/C [2]: 95 % of control | T/C [3]: 98 % of control

CCOc1ccc(/C=C2\N=C(c3cc(OC)c(OC)c(OC)c3)OC2=O)cc1
T/C [17]: 102 % of control | T/C [13]: 96 % of control | T/C [18]: 123 % of control | T/C [14]: 86 % of control | T/C [19]: 108 % of control | T/C [15]: 96 % of control

CCCN(/C=C/C=C/C=[N+](CCC)CCC)CCC
T/C (dose: 0.03 mg/kg/injection, schedule: Q04DX003 (ip), vehicle: saline): 100 % of control | T/C (dose: 0.05 mg/kg/injection, schedule: Q04DX003 (ip), vehicle: saline): 109 % of control | T/C (dose: 0.1 mg/kg/injection, schedule: Q04DX003 (ip), vehicle: saline): 98 % of control

CN(N=O)C(=O)C(=O)N(C)N=O
T/C (dose: 9.0 mg/kg/injection, schedule: Q01DX001 (ip), vehicle: other): 109 % of control | T/C (dose: 13.0 mg/kg/injection, schedule: Q01DX001 (ip), vehicle: other): 112 % of control | T/C (dose: 15.0 mg/kg/injection, schedule: Q01DX Z (ip), vehicle: saline): 100 % of control | T/C (dose: 30.0 mg/kg/injection, schedule: Q01DX Z (ip), vehicle: saline): 103 % of control | T/C (dose: 60.0 mg/kg/injection, schedule: Q01DX Z (ip), vehicle: saline): 92 % of control | T/C (dose: 120.0 mg/kg/injection, schedule: Q01DX Z (ip), vehicle: saline): 94 % of control

Cc1cccnc1OCC(=O)O
T/C [13]: 101 % of control | T/C [14]: 104 % of control | T/C [15]: 93 % of control
